Experiments:
[1] = system: other RTKs including VEGF receptors; assay: standard tyrosine kinase assay, other RTKs; type: biochemical
[2] = system: PDGF receptors; assay: cellular autophosphorylation assay, transfected Chinese hamster ovary cells; type: cell-based
Protocol: (§1) In vivo activity requires drugs to enter cells and therefore agents are tested in cellular autophosphorylation assays, using Chinese hamster ovary cells transfected with one of several RTK genes.

[3] = system: other receptors tested including VEGF receptors; assay: as above
Protocol: as §1

[4] = target: T1, Flt-1 (Homo sapiens, UniProt P17948); assay: standard tyrosine kinase assay: phosphorylation of poly(GluTyr) by GST-fusion kinase domain; type: biochemical
T1 construct: GST-fusion proteins of the kinase domains of several tyrosine kinase receptors; GST
T1 sequence (P17948 827-1158 limits assumed): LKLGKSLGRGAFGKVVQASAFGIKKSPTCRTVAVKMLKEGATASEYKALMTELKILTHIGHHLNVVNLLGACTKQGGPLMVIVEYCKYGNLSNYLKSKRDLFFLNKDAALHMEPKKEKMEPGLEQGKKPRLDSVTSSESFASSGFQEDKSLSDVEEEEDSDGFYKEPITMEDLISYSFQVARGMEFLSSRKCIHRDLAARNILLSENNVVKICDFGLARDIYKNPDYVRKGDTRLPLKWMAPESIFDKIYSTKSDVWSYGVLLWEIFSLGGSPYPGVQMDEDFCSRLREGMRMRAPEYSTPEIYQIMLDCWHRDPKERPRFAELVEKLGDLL

[5] = target: c-Kit (Homo sapiens, UniProt P10721); details: transfected Chinese hamster ovary cells
c-Kit, sequence (P10721 26-976): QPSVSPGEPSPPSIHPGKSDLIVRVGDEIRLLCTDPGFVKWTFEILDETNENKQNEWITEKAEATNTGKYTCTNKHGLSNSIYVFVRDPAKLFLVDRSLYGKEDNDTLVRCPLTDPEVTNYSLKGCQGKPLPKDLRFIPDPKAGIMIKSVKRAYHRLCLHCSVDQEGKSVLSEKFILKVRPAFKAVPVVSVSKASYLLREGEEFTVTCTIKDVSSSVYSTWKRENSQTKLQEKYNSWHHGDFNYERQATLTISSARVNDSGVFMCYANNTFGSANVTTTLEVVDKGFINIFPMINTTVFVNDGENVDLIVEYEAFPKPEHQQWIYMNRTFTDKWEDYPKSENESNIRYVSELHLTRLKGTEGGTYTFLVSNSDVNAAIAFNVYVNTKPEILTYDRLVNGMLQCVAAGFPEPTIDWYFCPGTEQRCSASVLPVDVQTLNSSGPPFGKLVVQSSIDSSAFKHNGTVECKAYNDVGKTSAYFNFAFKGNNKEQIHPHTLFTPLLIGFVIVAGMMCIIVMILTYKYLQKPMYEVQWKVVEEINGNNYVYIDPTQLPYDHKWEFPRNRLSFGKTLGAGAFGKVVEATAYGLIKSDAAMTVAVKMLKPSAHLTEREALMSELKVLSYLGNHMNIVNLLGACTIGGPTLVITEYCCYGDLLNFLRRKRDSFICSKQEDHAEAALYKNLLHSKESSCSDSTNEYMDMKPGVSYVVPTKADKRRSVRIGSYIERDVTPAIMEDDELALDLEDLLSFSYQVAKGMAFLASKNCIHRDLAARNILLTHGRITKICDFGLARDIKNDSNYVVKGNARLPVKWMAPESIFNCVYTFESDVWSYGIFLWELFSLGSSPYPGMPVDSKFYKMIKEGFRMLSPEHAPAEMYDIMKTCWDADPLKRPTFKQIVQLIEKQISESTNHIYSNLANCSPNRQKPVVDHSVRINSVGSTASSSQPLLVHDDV

[6] = system: C57BL/6 mice; assay: VEGF-induced BRB breakdown measured with [3H]mannitol as tracer after topical administration; type: in vivo; details: suspension topically in one eye twice a day for 3 days prior to intraocular injection of VEGF
Protocol: Intraocular injections are performed with a Harvard pump microinjection apparatus and pulled glass micropipets. Each micropipet is calibrated to deliver 1 μL of vehicle upon depression of a foot switch. Mice are anesthetized with 25 mg/kg of ketamine and 4 mg/kg of xylazine, pupils are dilated with 1% tropicamide. Under a dissecting microscope, the sharpened tip of a micropipet is passed through the sclera just behind the limbus into the vitreous cavity, and the foot switch is depressed and 1 μL of 10^−6 M human VEGF (R&D Systems, Minneapolis, Minn.) is injected.
Six or 24 hours after intraocular injections, mice are given an intraperitoneal injection of 1 μCi/g body weight of [^3H]mannitol (New England Nuclear, Boston, Mass.). After one hour, mice are sacrificed and eyes are removed. The cornea and lens are removed and the entire retina is carefully dissected from the eyecup and placed within pre-weighed scintillation vials. […] All liquid is removed from the vials and remaining droplets are allowed to evaporate over 20 minutes. The vials are weighed and the tissue weights are recorded. One mL of NCSII solubilizing solution (Amersham, Chicago, Ill.) is added to each vial and the vials are incubated overnight in a 50° C. water bath. The solubilized tissue is brought to RT and decolorized with 20% benzoyl peroxide in toluene in a 50° C. water bath. […]

[7] = system: VEGF receptors; assay: cellular autophosphorylation assay, transfected Chinese hamster ovary cells
Protocol: as §1

[8] = target: c-erbB2 (Homo sapiens, UniProt P04626); assay: as above
c-erbB2, sequence (P04626 23-1255): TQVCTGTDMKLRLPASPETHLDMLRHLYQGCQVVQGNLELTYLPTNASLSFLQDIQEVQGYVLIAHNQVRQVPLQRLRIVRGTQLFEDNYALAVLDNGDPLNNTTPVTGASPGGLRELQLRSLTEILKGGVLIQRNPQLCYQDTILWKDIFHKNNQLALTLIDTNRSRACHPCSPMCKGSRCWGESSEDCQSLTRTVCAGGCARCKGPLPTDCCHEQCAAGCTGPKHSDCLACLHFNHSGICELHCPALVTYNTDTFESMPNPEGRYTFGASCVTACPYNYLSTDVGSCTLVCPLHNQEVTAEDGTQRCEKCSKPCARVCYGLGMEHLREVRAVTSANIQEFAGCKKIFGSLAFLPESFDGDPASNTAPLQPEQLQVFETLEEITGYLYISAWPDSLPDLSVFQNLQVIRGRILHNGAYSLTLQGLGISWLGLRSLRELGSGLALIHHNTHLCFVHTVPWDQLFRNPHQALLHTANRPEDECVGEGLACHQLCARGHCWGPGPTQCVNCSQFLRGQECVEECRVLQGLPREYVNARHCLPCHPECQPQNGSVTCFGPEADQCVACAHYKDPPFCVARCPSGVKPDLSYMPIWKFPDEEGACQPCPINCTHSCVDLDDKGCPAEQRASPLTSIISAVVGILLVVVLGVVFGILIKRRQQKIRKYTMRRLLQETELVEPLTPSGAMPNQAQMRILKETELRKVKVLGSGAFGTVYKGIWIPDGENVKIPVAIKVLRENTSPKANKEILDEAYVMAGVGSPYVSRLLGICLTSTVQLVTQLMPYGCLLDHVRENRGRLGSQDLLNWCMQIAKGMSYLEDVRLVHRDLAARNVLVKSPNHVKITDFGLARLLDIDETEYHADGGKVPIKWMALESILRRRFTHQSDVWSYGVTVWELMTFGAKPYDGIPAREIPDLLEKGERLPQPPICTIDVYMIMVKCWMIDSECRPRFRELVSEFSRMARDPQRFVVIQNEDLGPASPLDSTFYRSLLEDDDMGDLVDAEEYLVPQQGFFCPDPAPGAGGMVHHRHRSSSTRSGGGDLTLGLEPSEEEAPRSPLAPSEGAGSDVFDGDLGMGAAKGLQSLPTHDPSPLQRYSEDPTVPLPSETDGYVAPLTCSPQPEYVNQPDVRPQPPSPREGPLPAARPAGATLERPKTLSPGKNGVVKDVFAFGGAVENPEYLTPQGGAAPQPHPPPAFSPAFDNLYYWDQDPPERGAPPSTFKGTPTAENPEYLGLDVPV
Protocol: as §1

[9] = target: insulin receptor (Homo sapiens, UniProt P06213); assay: as above
insulin receptor, sequence (P06213 28-1382, species assumed): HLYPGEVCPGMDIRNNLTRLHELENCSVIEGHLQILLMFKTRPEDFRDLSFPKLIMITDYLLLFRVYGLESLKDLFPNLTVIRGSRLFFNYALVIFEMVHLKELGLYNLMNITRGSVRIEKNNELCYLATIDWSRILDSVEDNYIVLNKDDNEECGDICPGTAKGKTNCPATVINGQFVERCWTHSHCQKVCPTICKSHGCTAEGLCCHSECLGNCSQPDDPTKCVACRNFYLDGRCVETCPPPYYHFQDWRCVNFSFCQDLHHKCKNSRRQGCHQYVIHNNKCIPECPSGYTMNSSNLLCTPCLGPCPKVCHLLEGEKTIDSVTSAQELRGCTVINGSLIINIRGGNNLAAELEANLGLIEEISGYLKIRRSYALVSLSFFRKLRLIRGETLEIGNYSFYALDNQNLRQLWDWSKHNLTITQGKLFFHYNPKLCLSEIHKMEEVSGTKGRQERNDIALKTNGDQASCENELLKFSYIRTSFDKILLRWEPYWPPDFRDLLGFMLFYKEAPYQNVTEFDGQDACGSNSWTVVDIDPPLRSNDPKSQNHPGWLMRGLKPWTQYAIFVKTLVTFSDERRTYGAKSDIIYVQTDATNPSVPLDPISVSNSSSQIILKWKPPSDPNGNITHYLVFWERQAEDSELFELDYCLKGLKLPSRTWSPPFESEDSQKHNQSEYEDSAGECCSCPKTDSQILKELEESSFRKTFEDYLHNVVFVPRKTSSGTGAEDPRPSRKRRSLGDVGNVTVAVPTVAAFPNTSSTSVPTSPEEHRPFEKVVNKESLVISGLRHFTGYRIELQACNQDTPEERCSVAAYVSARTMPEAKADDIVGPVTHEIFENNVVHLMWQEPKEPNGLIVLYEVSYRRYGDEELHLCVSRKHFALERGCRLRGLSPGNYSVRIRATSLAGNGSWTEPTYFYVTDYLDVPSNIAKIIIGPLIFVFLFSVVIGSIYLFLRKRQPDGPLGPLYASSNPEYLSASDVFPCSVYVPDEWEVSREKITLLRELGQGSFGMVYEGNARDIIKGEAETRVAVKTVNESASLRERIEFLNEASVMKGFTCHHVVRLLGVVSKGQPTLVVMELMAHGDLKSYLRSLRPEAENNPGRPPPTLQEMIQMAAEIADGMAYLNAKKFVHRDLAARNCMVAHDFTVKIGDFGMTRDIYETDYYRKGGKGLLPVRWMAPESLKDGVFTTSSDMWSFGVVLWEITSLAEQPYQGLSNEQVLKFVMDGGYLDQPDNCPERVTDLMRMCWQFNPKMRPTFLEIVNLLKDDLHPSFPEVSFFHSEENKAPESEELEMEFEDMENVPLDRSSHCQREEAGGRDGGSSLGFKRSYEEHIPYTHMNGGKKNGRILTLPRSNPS
Protocol: as §1

Compound	inhibitory activity of other RTKs including VEGF receptors [1]	inhibition of autophosphorylation of PDGF receptors [2]	inhibition of autophosphorylation of other receptors tested including VEGF receptors [3]	inhibition of phosphorylation by the kinase domain of human VEGF receptor 1 [4]	inhibition of autophosphorylation of c-Kit [5]	RRLR compared to contralateral eyes in the same mice [6]	inhibition of autophosphorylation of VEGF receptors [7]	inhibition of autophosphorylation of c-erbB2 [8]	inhibition of autophosphorylation of insulin receptor [9]
Cc1ccc(NC(=O)c2ccc(CN3CCN(C)CC3)cc2)cc1Nc1nccc(-c2cccnc2)n1 [CGP 57 148]	little or no inhibitory activity	potent inhibitors	poor inhibitors						
Clc1ccc(Nc2nnc(Cc3ccncc3)c3ccccc23)cc1 [PTK 787]		inhibits autophosphorylation		good inhibitor	inhibits autophosphorylation	not a significant difference	inhibits autophosphorylation	poor inhibitor	poor inhibitor
Cc1ccc(NC(=O)c2ccccc2)cc1Nc1nccc(-c2cccnc2)n1 [CGP 53 716]	little or no inhibitory activity	potent inhibitors	poor inhibitors						
